Source: patent US20250177586A1, “HEATING APPARATUS AND METHODS” (ACADEMISCH ZIEKENHUIS LEIDEN (H.O.D.N. LUMC), priority 2018, published 2025)

System: S. Epidermidis biofilm
Test: Eradication of biofilm from titanium alloy coupon by induction-heating thermal shock followed by antibiotics (FIG. 13)
Type: cell-based
Settings: vancomycine 10 mg/L and rifampicine 1 mg together, 24 hours exposure in BHI culture medium, after thermal shock of 65° C. from 3.5 minutes with induction heating, N=6 or greater
Excerpt: N=6 or greater for each group.

| SMILES | eradication of biofilm (active count, Log (CFU/cm^2)) |
| --- | --- |
| CN[C@H](CC(C)C)C(=O)N[C@H]1C(=O)N[C@@H](CC(N)=O)C(=O)N[C@H]2C(=O)N[C@H]3C(=O)N[C@H](C(=O)N[C@H](C(=O)O)c4cc(O)cc(O)c4-c4cc3ccc4O)[C@H](O)c3ccc(c(Cl)c3)Oc3cc2cc(c3O[C@@H]2O[C@H](CO)[C@@H](O)[C@H](O)[C@H]2O[C@H]2C[C@](C)(N)[C@H](O)[C@H](C)O2)Oc2ccc(cc2Cl)[C@H]1O [vancomycine] | full eradication |
| CO[C@H]1/C=C/O[C@@]2(C)Oc3c(C)c(O)c4c(O)c(c(/C=N/N5CCN(C)CC5)c(O)c4c3C2=O)NC(=O)/C(C)=C\C=C\[C@H](C)[C@H](O)[C@@H](C)[C@@H](O)[C@@H](C)[C@H](OC(C)=O)[C@@H]1C [rifampicine] | full eradication |
